Inhibition data for one compound are collected here from paper PMC7180948, “New Insights into 4-Anilinoquinazolines as Inhibitors of Cardiac Troponin I–Interacting Kinase (TNNi3K)” (Molecules, 2020).

What all share (experiment): biochemical
Common to all, as to parameters: KINOMEscan competition binding panel (Eurofins DiscoverX), single concentration, percent inhibition
What all share (details): read-out: 15 at 1 µM % inhibition

Test [1] concerns the target T1, ADCK4 (Homo sapiens, UniProt Q96D53).
T1 construct: gene COQ8B
The method, boiled down: (§1)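 KINOMEscan binding panel of >400 kinases, run by Eurofins DiscoverX, with compounds tested at a single concentration of 1 µM.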

For test [2], the target named is AKT3 (Homo sapiens, UniProt Q9Y243). The method, boiled down: as §1
Chain of AKT3 (Q9Y243 whole entry): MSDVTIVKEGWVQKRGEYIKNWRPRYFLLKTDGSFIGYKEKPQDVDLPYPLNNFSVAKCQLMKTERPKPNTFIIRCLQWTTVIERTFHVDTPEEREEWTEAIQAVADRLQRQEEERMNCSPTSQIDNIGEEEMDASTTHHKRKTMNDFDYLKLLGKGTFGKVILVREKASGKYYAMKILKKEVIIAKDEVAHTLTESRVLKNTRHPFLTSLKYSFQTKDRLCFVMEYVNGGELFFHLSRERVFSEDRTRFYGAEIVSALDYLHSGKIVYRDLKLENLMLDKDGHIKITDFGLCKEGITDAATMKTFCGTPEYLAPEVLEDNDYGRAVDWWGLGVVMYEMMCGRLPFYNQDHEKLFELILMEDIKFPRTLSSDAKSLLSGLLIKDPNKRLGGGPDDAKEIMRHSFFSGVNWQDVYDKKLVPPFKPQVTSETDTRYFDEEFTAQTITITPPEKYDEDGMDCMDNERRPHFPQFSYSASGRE
For test [3], the target named is CIT (Homo sapiens, UniProt O14578). The method, boiled down:
as §1

For test [4], the target named is CSNK1A1L (Homo sapiens, UniProt Q8N752). Put shortly: as §1
The target of test [5] is CSNK1E (Homo sapiens, UniProt P49674). The method, boiled down: as §1
Chain of CSNK1E (P49674 whole entry): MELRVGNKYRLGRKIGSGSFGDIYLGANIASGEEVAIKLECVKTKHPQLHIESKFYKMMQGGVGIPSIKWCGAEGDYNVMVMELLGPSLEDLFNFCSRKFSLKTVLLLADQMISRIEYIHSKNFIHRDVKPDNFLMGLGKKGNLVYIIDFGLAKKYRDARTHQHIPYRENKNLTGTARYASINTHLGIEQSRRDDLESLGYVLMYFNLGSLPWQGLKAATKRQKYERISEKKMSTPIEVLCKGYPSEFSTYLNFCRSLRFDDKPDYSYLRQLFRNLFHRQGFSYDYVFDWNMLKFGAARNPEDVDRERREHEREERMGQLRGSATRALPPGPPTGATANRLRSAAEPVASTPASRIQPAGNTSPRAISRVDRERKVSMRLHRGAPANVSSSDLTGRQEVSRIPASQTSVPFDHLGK
Test [6] has as its target DYRK1B (Homo sapiens, UniProt Q9Y463). Put shortly:
as §1

Test [7] has as its target FLT3(D835V) (Homo sapiens, UniProt P36888, D835V). Put shortly: as §1
Test [8] deals with T2, JAK2(JH1domain-catalytic) (Homo sapiens, UniProt O60674).
T2 construct: JH1domain-catalytic
The method, boiled down: as §1

The target in test [9] is T3, JNK2 (Homo sapiens, UniProt P45984).
T3 construct: gene MAPK9
T3 sequence (P45984 whole entry): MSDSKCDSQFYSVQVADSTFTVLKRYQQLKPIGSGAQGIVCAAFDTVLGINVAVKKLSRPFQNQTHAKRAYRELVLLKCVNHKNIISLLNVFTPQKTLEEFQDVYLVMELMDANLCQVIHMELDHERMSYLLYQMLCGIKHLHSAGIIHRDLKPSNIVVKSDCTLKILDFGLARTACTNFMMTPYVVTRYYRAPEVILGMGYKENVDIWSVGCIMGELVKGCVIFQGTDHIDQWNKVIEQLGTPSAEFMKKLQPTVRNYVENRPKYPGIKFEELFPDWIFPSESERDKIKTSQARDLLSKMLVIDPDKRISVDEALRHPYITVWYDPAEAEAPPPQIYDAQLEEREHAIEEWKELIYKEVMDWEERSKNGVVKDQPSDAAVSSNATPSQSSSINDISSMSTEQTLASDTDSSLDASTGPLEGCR
The method, boiled down: as §1

Test [10] concerns the target KIT(L576P) (Homo sapiens, UniProt P10721, L576P). Put shortly:
as §1

Test [11] has as its target KIT(V559D,V654A) (Homo sapiens, UniProt P10721, V559D/V654A). The method, boiled down:
as §1

The target of test [12] is MELK (Homo sapiens, UniProt Q14680). The method, boiled down:
as §1

Test [13] has as its target T4, MST3 (Homo sapiens, UniProt Q9Y6E0).
T4 construct: gene STK24
Put shortly:
as §1

Test [14] has as its target NEK11 (Homo sapiens, UniProt Q8NG66). Put shortly:
as §1

Test [15] addresses NEK5 (Homo sapiens, UniProt Q6P3R8). Put shortly: as §1
Test [16] has as its target PIK3C2G (Homo sapiens, UniProt O75747). The method, boiled down: as §1
In test [17] the target is PRKG2 (Homo sapiens, UniProt Q13237). Put shortly:
as §1

Test [18] addresses RET(V804L) (Homo sapiens, UniProt P07949, V804L). The method, boiled down: as §1
For test [19], the target named is T5, RSK4(Kin.Dom.2-C-terminal) (Homo sapiens, UniProt Q9UK32).
T5 construct: gene RPS6KA6; Kin.Dom.2-C-terminal
Put shortly: as §1

In test [20] the target is SIK2 (Homo sapiens, UniProt Q9H0K1). The method, boiled down:
as §1

Test [21] addresses TGFBR2 (Homo sapiens, UniProt P37173). The method, boiled down:
as §1

Test [22] concerns the target T6, TIE2 (Homo sapiens, UniProt Q02763).
T6 construct: gene TEK
Put shortly: as §1

Test [23] addresses TXK (Homo sapiens, UniProt P42681). The method, boiled down:
as §1

Test [24] addresses T7, YANK3 (Homo sapiens, UniProt Q86UX6).
T7 construct: gene STK32C
Put shortly:
as §1

In general, inhibition refers to the share of the control response that was lost under treatment.

Chain of MELK (Q14680 whole entry): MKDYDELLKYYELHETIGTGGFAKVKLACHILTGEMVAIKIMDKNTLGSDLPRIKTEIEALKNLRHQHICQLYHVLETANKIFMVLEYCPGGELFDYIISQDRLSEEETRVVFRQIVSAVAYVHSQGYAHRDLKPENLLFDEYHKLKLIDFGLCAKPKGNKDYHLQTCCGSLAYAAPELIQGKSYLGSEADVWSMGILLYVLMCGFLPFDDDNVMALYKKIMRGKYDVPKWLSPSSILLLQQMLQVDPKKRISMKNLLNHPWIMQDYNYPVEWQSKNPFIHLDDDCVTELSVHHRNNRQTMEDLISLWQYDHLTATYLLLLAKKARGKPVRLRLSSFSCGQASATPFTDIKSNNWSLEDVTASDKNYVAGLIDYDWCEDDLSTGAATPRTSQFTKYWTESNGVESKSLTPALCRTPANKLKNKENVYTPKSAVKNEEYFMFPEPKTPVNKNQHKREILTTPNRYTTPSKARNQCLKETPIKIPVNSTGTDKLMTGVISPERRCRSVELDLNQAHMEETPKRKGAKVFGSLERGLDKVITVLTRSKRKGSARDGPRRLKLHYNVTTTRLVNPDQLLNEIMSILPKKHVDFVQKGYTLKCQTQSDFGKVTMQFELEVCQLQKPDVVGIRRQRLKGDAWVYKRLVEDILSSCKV
Chain of KIT(V559D,V654A) (P10721 whole entry V559D/V654A): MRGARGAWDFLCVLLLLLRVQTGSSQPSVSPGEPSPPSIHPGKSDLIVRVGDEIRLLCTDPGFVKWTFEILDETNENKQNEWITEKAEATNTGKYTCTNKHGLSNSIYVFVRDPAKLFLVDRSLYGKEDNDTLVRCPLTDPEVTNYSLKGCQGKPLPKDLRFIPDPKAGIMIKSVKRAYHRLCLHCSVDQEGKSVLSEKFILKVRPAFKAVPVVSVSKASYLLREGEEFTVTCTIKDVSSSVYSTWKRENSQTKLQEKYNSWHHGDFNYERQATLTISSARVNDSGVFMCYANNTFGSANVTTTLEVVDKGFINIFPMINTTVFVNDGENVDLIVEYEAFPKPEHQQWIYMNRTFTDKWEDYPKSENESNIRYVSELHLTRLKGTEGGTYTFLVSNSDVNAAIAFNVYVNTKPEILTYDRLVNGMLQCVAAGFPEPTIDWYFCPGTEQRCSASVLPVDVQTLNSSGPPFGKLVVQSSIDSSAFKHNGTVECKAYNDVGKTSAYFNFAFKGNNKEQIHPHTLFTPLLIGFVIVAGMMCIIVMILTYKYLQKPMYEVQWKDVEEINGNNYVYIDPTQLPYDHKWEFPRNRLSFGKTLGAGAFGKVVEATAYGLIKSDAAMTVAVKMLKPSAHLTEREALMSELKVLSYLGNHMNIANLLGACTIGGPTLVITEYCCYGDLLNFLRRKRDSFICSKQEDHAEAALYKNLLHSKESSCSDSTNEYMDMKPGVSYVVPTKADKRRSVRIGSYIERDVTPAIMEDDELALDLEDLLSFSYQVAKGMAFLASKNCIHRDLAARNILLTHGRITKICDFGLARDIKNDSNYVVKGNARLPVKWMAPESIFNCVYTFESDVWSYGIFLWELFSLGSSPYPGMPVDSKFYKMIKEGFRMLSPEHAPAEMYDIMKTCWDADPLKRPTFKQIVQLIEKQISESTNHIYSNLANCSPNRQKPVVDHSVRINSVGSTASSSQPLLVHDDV
Chain of RET(V804L) (P07949 whole entry V804L): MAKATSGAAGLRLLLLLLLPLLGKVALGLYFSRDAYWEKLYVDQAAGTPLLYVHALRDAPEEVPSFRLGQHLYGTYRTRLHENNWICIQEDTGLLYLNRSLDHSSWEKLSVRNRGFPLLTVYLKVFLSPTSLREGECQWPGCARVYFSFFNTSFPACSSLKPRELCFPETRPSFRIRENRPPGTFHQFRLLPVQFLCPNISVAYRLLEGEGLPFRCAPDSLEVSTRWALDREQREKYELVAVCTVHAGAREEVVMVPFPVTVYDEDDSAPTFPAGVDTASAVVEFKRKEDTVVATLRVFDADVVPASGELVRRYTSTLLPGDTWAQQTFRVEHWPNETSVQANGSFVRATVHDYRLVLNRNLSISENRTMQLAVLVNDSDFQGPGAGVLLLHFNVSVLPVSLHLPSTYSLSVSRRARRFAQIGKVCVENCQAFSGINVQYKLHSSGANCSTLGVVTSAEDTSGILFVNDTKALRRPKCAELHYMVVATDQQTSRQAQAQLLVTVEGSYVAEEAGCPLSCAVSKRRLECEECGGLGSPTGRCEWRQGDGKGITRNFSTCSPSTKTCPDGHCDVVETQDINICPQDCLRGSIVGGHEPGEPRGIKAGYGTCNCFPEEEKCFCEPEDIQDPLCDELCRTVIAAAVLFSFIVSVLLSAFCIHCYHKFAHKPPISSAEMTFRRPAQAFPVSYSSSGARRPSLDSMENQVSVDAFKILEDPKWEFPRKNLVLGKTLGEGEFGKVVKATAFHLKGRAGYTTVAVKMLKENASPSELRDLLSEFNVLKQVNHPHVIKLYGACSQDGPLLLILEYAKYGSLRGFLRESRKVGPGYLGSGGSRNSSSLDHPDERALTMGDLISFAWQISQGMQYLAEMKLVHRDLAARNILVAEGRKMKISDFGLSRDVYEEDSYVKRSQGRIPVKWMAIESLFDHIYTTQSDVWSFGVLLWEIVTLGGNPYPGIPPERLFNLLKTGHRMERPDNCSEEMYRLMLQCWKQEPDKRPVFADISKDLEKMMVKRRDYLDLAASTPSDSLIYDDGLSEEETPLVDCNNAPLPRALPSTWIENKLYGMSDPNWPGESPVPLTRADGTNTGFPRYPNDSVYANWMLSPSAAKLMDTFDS
T1 sequence (Q96D53 whole entry): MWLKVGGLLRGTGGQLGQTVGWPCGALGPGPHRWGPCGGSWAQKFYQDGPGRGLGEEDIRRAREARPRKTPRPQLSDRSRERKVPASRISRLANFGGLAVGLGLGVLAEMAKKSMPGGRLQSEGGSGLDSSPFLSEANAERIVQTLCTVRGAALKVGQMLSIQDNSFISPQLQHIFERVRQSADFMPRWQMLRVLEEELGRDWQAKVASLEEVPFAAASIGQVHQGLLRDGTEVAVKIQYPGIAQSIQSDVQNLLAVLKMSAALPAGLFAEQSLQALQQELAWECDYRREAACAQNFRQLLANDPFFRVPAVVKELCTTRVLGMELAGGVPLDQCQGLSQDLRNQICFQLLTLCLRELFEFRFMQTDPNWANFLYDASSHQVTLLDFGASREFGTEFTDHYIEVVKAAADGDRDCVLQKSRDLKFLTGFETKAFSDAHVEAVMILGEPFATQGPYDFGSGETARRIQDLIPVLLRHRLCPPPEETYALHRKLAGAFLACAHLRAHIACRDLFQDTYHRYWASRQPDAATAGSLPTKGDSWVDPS
T4 sequence (Q9Y6E0 whole entry): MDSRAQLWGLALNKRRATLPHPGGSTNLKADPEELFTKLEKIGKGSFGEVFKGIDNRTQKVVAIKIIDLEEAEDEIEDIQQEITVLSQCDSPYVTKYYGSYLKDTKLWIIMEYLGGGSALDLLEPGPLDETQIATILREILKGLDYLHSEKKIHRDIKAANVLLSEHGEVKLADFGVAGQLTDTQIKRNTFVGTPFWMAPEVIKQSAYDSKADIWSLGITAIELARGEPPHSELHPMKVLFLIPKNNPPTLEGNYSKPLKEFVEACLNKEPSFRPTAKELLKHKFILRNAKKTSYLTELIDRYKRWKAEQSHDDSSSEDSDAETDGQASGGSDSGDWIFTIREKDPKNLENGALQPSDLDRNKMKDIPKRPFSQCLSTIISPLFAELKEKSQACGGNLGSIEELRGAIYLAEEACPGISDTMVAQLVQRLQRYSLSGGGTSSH

Regarding `CNS(=O)(=O)c1ccc(N(C)C)c(Nc2nc(C)nc3cc(OC)c(OC)cc23)c1` [compound 15, 3-((6,7-dimethoxy-2-methylquinazolin-4-yl)amino)-4-(dimethylamino)-N-methylbenzenesulfonamide], the inhibition at 1 µM stood at 0% in [1]; 4% in test [2]; 4% in test [3]; 0% in [4]; 0% in test [5]; 17% in test [6]. Moreover, the inhibition at 1 µM in test [7] stood at 37%; in [8] it was 0%; in test [9], 4%; in test [10], 0%; in test [11], 0%; in test [12], 0%. In addition, the inhibition at 1 µM in [13] was determined as 0%; in [14] it was 12%; in test [15], 0%; in test [16], 22%; in [17], 21%; in test [18] it was 0%. Also, the inhibition at 1 µM in test [19] was determined as 3%; in test [20], 4%; in test [21], 8%; in test [22] it was 6%; in [23] it was 5%; in test [24], 0%.
